Nine compounds from US20230106760A1, “ANTIBACTERIAL AND ANTIFUNGAL POLYKETIDES FROM ENVIRONMENTAL AMYCOLATOPSIS SPP” (The United States of America, as represented by the …, priority 2020, published 2023) can be followed below.

≈ marks a conversion by molar mass, not a printed value.

One assay has as its system S. aureus ATCC 29213. The assay can be described thus: Bactericidal activity: broth cultures with compound plated onto TSA without antibiotic. The note with it: for MIC: Staphylococcus aureus, ATCC29213. The format is cell-based, Staphylococcus aureus. On the procedure:
(§1) The growth conditions were adapted from the CLSI protocols for broth dilution susceptibility assays. A culture of S. aureus ATCC 29213 was diluted with MHII broth to an inoculum of—5×10^5 CFU/mL. Cultures were grown in 100 μL in round-bottom 96-well plates with increasing concentrations of test or control compound. Plates were gently rocked at 37° C. overnight and then 50 μL of each culture was spread onto TSA plates without antibiotic. The plates were incubated at 37° C. overnight and then examined for bacterial growth. Similarly, an inoculum of C. albicans ATCC 28517 or C. auris ATCC MYA-5001 was prepared in RPMI-1640 with 165 mM MOPS at 0.5×10^3-2.5×10^3 CFU/mL. Cultures were grown in 200 μL in round-bottom 96-well plates with increasing concentrations of test or control compound. Plates were gently rocked at 35° C. overnight and then 50 μL of each culture was spread onto Sabouraud dextrose agar (SDA) plates without compound. The plates were incubated at 35° C. overnight and then examined for fungal growth.
(§2) After treatment with concentrations of compound 2 at or nearing the MIC, no viable organism could be recovered.
(§3) FIG. 19-20 show bactericidal and fungicidal activities of compound 2. FIG. 19A-C show the bactericidal activity of compound 2 against S. aureus ATCC 29213. […] FIG. 20A-B show the fungicidal activity of compound 2.

The subject of assay [1] is MRSA, methicillin-resistant Sa ATCC 43300. The assay can be described thus: MIC, CLSI broth dilution susceptibility assay. The format is cell-based, Staphylococcus aureus. To be noted: for Minimum Inhibitory Concentration (MIC): MRSA ATCC 43300. On the procedure: (§4) The compounds were assayed against Gram-positive bacteria Staphylococcus aureus (Sa), methicillin-resistant Sa (MRSA), Enterococcus faecalis, and Vancomycin-resistant E. faecalis; the Gram-negative bacteria Escherichia coli and Pseudomonas aeruginosa; and the fungi Candida albicans and Amphotericin B-resistant C. albicans.
as §1

Assay [2] has as its system Candida albicans ATCC 28517. The assay can be described thus: MIC, CLSI broth dilution susceptibility assay. The format is cell-based. To be noted: for Minimum Inhibitory Concentration (MIC): Candida albicans ATCC 28517. On the procedure: as §4, §1
In general terms: Dilution methods test growth across graded concentrations, often in twofold steps.

The subject of assay [3] is Candida auris ATCC MYA-5001. The assay can be described thus: MIC, CLSI broth dilution susceptibility assay. It counts as cell-based. To be noted: for Minimum Inhibitory Concentration (MIC): Candida auris ATCC MYA-5001. On the procedure: as §4, §1
For assay [4], the system named is Enterococcus faecalis ATCC 29212. As to the kind of experiment: MIC, CLSI broth dilution susceptibility assay. The note with it: for Minimum Inhibitory Concentration (MIC): Enterococcus faecalis ATCC 29212. The format is cell-based. As for the experimental part:
as §4, §1

Assay [5] deals with Escherichia coli ATCC 25922. The assay can be described thus: MIC, CLSI broth dilution susceptibility assay. The format is cell-based. On the procedure: as §4, §1
In assay [6] the test system is Pseudomonas aeruginosa ATCC 27853. The assay can be described thus: MIC, CLSI broth dilution susceptibility assay. The format is cell-based. As for the experimental part:
as §4, §1

The subject of assay [7] is Staphylococcus aureus (Sa) ATCC 29213. As to the kind of experiment: MIC, CLSI broth dilution susceptibility assay. The format is cell-based. To be noted: for Minimum Inhibitory Concentration (MIC): Staphylococcus aureus ATCC 29213. On the procedure: as §4, §1
For assay [8], the system named is Vancomycin-resistant E. faecalis ATCC 51299. As to the kind of experiment: MIC, CLSI broth dilution susceptibility assay. It counts as cell-based, Enterococcus faecalis. As for the experimental part: as §4, §1
In assay [9] the test system is Amphotericin B-resistant C. albicans ATCC 200955. The format is cell-based. As for the experimental part:
as §4, §1

For a further assay, the system named is C. albicans ATCC 28517. The assay can be described thus: Fungicidal activity: broth cultures with compound plated onto SDA without compound. It counts as cell-based, Candida albicans. On the procedure:
as §1, §2, §3

A further assay relates to C. auris ATCC MYA-5001. The description is as above. The format is cell-based, Candida auris. On the procedure: as §1, §2, §3
Assay [10] deals with Amycolatopsis glycosyltransferase. As to the kind of experiment: Glycosyltransferase assay (substrate specificity). The format is biochemical, Amycolatopsis sp. F10. To be noted: PBS, 500 μM UDP-glucose, 100 μM substrate, 30° C., 2 to 30 min; HPLC UV 254 nm or MS. As for the experimental part:
Glycosyltransferase expression vector cloning: An expression vector pET28b-gt was constructed by cloning the glycosyltransferase gene into pET28b (Novagen) with a C-terminal 6-His tag using the NEBuilder HiFi DNA Assembly kit (New England Biolabs). The glycosyltransferase gene was PCR amplified from F10 genomic DNA with primers that appended 5′ and 3′ overhangs homologous to the pET28b multiple cloning site. The linearized pET28b vector was prepared by restriction enzyme digestion with NcoI and XhoI. After cloning and confirmation by Sanger sequencing, pET28b-gt was transformed into E. coli BL21(DE3) for protein expression. The expression vector pET28b-gt-H15A was created from pET28b-gt with site-directed mutagenesis using overlapping primers and the QuikChange II kit.
Glycosyltransferase recombinant protein purification: An overnight culture of the glycosyltransferase expression strain in Luria-Bertani broth (LB) was used to inoculate 2 L LB with a 1:100 dilution (v/v). The culture was grown at 37° C. to OD600=0.5-0.7 and 0.1 mM isopropyl β-d-1-thiogalactopyranoside (IPTG) was added to induce protein expression for 4 hours. Cells were harvested by centrifugation, suspended in 20 mL phosphate-buffered saline (PBS) and stored at −80° C. For purification, the cells were thawed, lysed (lysozyme, DNase, MgCl2, phenylmethylsulfonyl fluoride (PMSF), and sonication), and cellular debris was removed by centrifugation. The glycosyltransferase was purified from the clarified lysate in two chromatographic steps on an AKTA Pure 25 FPLC. […] The eluted fractions containing the glycosyltransferase were confirmed by SDS-PAGE, pooled, and concentrated and buffer exchanged to remove imidazole in a 10000 Da MW centrigual filter device. The sample was run on a HiLoad Superdex 75 pg 16/600 size exclusion column with 50 mM HEPES pH 6.8/50 mM NaCl/10% glycerol. Protein purity was confirmed by SDS-PAGE. The purified glycosyltransferase was concentrated and flash frozen in aliquots at […]. […]

The mark [11] stands for this setting: S. aureus ATCC 29213, FIG. 19 bactericidal experiment.
Where [12] appears, read: at or nearing the MIC no viable organism could be recovered.

By MIC is commonly meant the lowest concentration found to suppress growth. Turning to `O=C(N[C@H](CO)[C@H](O)c1ccc([N+](=O)[O-])cc1)C(Cl)Cl` [chloramphenicol, reference compound], in the assay on S. aureus ATCC 29213 (setting [11]), the MIC was determined as 8 µg/mL (≈ 24.8 µM).
As to `CC/C=C/C=C/C=C/C(O)CC1(O)OC(CC(O)C(O)C(O)C(O)C(O)C(C)C(O)C(C)C(O)CC(O)CC(O)CC(O)C(C)C(O)C(C)C(O)C(C)C(O)C(O)CC(C)CC(C)/C=C(C)/C(O)=C2/C(=O)C(C)N(C)C2=O)C(O)C(O)C1O` (stereo not shown) [Compound 2], the “Minimum Inhibitory Concentration (MIC)” value was 2 micrograms/mL in [1]; 8 micrograms/mL in assay [2]; 16 micrograms/mL in assay [3]; 8 micrograms/mL in assay [4]; greater than 128 micrograms/mL in assay [5]; greater than 128 micrograms/mL in assay [6]. In addition, the “Minimum Inhibitory Concentration (MIC)” value in assay [7] worked out at 2 micrograms/mL; in [8], 8 micrograms/mL; in [9] it was 8 micrograms/mL. Moreover, the “MIC in the experiment” value in the assay with S. aureus ATCC 29213 (setting [11]) was determined as 2 µg/mL (≈ 1.67 µM); in the assay with C. albicans ATCC 28517 (C. albicans ATCC 28517, FIG. 20A fungicidal experiment), 8 µg/mL (≈ 6.7 µM); with C. auris ATCC MYA-5001 (C. auris ATCC MYA-5001, FIG. 20B fungicidal experiment), 16 µg/mL (≈ 13.4 µM). For the same compound, the “Mode of action against S. aureus (bactericidal)” value in the assay on S. aureus ATCC 29213 (setting [12]) was “bactericidal”. The “Mode of action against C. albicans (fungicidal)” value with C. albicans ATCC 28517 (setting [12]) is given as “fungicidal”. Besides, the “Mode of action against C. auris (fungicidal)” value with C. auris ATCC MYA-5001 (setting [12]) is on record as “fungicidal”. The “Glycosyltransferase activity on the substance as substrate” value in assay [10] is “complete conversion”.
With `CN[C@H](CC(C)C)C(=O)N[C@H]1C(=O)N[C@@H](CC(N)=O)C(=O)N[C@H]2C(=O)N[C@H]3C(=O)N[C@H](C(=O)N[C@H](C(=O)O)c4cc(O)cc(O)c4-c4cc3ccc4O)[C@H](O)c3ccc(c(Cl)c3)Oc3cc2cc(c3O[C@@H]2O[C@H](CO)[C@@H](O)[C@H](O)[C@H]2O[C@H]2C[C@](C)(N)[C@H](O)[C@H](C)O2)Oc2ccc(cc2Cl)[C@H]1O` [vancomycin, reference compound], the “MIC, antibiotic control” value in assay [1] (MRSA, footnote control) is reported as “MRSA: vancomycin = 0.5-1 ug/mL”; in assay [4] (E. faecalis, footnote control), “E. faecalis: vancomycin = 2 ug/mL”.
Regarding `CC/C=C/C=C/C=C/C(O)CC1(O)OC(CC(O)C(O)C(O)C(O)C(O)C(C)C(O)C(C)C(O)CC(O)CC(O)CC(O)C(C)C(O)C(C)C(O)C(C)C(O)C(CC(C)CC(C)/C=C(C)/C(O)=C2/C(=O)C(C)N(C)C2=O)OC2OC(CO)C(O)C(O)C2O)C(O)C(O)C1O` (stereo not shown) [Compound 1], the “Minimum Inhibitory Concentration (MIC)” value in assay [1], in assay [2], in assay [3], in [4], in assay [5] and in assay [6] was greater than 128 micrograms/mL each time. The “Minimum Inhibitory Concentration (MIC)” value in assay [7], in [8] and in assay [9] was greater than 128 micrograms/mL each time.
Take `OC(Cn1cncn1)(Cn1cncn1)c1ccc(F)cc1F` [fluconazole, reference compound]: in [3] (C. auris, footnote control), the “MIC, antibiotic control” value is “C. auris: fluconazole = 1 ug/mL”.
As to `Cc1onc(-c2ccccc2)c1C(=O)N[C@@H]1C(=O)N2[C@@H]1SC(C)(C)[C@@H]2C(=O)O` [oxacillin, reference compound], the “MIC, antibiotic control” value in assay [7] (S. aureus, footnote control) is given as “S. aureus: oxacillin = 0.25-0.5 ug/mL”. In the assay with S. aureus ATCC 29213 (setting [11]), the MIC amounted to 2 µg/mL (≈ 4.98 µM).
Turning to `CC[C@H]1OC(=O)[C@H](C)[C@@H](O[C@H]2C[C@@](C)(OC)[C@@H](O)[C@H](C)O2)[C@H](C)[C@@H](O[C@@H]2O[C@H](C)C[C@H](N(C)C)[C@H]2O)[C@](C)(O)C[C@@H](C)C(=O)[C@H](C)[C@@H](O)[C@]1(C)O` [erythromycin], the “Glycosyltransferase activity on the substance as substrate” value in [10] is “no activity”.
Same read-out and setting: the entry for `CC[C@H]1OC(=O)C[C@@H](O)[C@H](C)[C@@H](O[C@@H]2O[C@H](C)[C@@H](O[C@H]3C[C@@](C)(O)[C@@H](O)[C@H](C)O3)[C@H](N(C)C)[C@H]2O)[C@@H](CC=O)C[C@@H](C)C(=O)/C=C/C(C)=C/[C@@H]1CO[C@@H]1O[C@H](C)[C@@H](O)[C@@H](OC)[C@H]1OC` [tylosin] is “no activity”.
Regarding `C[C@@H]1[C@H](O)[C@@H](C)/C=C/C=C/C=C/C=C/C=C/C=C/C=C/[C@H](O[C@@H]2O[C@H](C)[C@@H](O)[C@H](N)[C@@H]2O)C[C@@H]2O[C@](O)(C[C@@H](O)C[C@@H](O)[C@H](O)CC[C@@H](O)C[C@@H](O)CC(=O)O[C@H]1C)C[C@H](O)[C@H]2C(=O)O` [amphotericin B, reference compound], the “MIC, antibiotic control” value in [2] (C. albicans, footnote control) is recorded as “C. albicans: amphotericin B = 2 ug/mL”.
